10 compounds from patent US8304434B2, “Substituted aryl sulfone derivatives as calcium channel blockers” (Merck Sharp & Dohme Corp., priority 2007, dated 2012) can be followed below.

Usually IC50 stands for the point on the concentration scale where inhibition reaches its midpoint.

The assay addresses T1, Human Cav2.2 channels (Homo sapiens, UniProt Q00975).
T1 construct: expressed in transfected cells; also expresses Kir2.3)
Description: Fluorescent assay for Cav2.2 channels using potassium depolarization to initiate channel opening (Assay Example 1). The assay is classed as cell-based. As to conditions: Assay Example 1, HEK293 cells expressing human Cav2.2; pre-incubation potassium concentration not stated. From the text:
Human Cav2.2 channels were stably expressed in HEK293 cells along with alpha2-delta and beta subunits of voltage-gated calcium channels. An inwardly rectifying potassium channel (Kir2.3) was also expressed in these cells to allow more precise control of the cell membrane potential by extracellular potassium concentration. At low bath potassium concentration, the membrane potential is relatively negative, and is depolarized as the bath potassium concentration is raised. In this way, the bath potassium concentration can be used to regulate the voltage-dependent conformations of the channels. Compounds are incubated with cells in the presence of low (4 mM) potassium or elevated (12, 25 or 30 mM) potassium to determine the affinity for compound block of resting (closed) channels at 4 mM potassium or affinity for block of open and inactivated channels at 12, 25 or 30 mM potassium. After the incubation period, Cav2.2 channel opening is triggered by addition of higher concentration of potassium (70 mM final concentration) to further depolarize the cell. The degree of state-dependent block can be estimated from the inhibitory potency of compounds after incubation in different potassium concentrations.
Calcium influx through Cav2.2 channels is determined using a calcium-sensitive fluorescent dye in combination with a fluorescent plate reader. Fluorescent changes were measured with either a VIPR (Aurora Instruments) or FLIPR (Molecular Devices) plate reader.
• 1. Seed cells in Poly-D-Lysine Coated 96- or 384-well plate and keep in a 37° C.-10% CO2 incubator overnight • 2. Remove media^1, wash cells with 0.2 ml (96-well plate) or 0.05 ml (384-well plate) Dulbecco's Phosphate Buffered Saline (D-PBS) with calcium & magnesium (Invitrogen; 14040) • 3. Add 0.1 ml (96-well plate) or 0.05 ml (384-well plate) of 4 μM fluo-4 (Molecular Probes; F-14202) and 0.02% Pluronic acid (Molecular Probes; P-3000) prepared in D-PBS with calcium & magnesium (Invitrogen; 14040) supplemented with 10 mM Glucose & 10 mM Hepes/NaOH; pH 7.4 • 4. Incubate in the dark at 25° C. for 60-70 min • 5. Remove dye^2, wash cells with 0.1 ml (96-well plate) or 0.06 ml (384-well plate) of 4, 12, 25, or 30 mM Potassium Pre-polarization Buffer. (PPB) • 6. Add 0.1 ml (96-well plate) or 0.03 ml (384-well plate) of 4, 12, 25, 30 mM PPB, with or without test compound • 7. Incubate in the dark at 25° C. for 30 min • 8. Read cell plate on VIPR instrument, Excitation=480 nm, Emission=535 nm • 9. With VIPR continuously reading, add 0.1 ml (96-well plate) or 0.03 ml (384-well plate) of Depolarization Buffer, which is 2× the final assay concentration, to the cell plate.

T1 sequence (Q00975 whole entry): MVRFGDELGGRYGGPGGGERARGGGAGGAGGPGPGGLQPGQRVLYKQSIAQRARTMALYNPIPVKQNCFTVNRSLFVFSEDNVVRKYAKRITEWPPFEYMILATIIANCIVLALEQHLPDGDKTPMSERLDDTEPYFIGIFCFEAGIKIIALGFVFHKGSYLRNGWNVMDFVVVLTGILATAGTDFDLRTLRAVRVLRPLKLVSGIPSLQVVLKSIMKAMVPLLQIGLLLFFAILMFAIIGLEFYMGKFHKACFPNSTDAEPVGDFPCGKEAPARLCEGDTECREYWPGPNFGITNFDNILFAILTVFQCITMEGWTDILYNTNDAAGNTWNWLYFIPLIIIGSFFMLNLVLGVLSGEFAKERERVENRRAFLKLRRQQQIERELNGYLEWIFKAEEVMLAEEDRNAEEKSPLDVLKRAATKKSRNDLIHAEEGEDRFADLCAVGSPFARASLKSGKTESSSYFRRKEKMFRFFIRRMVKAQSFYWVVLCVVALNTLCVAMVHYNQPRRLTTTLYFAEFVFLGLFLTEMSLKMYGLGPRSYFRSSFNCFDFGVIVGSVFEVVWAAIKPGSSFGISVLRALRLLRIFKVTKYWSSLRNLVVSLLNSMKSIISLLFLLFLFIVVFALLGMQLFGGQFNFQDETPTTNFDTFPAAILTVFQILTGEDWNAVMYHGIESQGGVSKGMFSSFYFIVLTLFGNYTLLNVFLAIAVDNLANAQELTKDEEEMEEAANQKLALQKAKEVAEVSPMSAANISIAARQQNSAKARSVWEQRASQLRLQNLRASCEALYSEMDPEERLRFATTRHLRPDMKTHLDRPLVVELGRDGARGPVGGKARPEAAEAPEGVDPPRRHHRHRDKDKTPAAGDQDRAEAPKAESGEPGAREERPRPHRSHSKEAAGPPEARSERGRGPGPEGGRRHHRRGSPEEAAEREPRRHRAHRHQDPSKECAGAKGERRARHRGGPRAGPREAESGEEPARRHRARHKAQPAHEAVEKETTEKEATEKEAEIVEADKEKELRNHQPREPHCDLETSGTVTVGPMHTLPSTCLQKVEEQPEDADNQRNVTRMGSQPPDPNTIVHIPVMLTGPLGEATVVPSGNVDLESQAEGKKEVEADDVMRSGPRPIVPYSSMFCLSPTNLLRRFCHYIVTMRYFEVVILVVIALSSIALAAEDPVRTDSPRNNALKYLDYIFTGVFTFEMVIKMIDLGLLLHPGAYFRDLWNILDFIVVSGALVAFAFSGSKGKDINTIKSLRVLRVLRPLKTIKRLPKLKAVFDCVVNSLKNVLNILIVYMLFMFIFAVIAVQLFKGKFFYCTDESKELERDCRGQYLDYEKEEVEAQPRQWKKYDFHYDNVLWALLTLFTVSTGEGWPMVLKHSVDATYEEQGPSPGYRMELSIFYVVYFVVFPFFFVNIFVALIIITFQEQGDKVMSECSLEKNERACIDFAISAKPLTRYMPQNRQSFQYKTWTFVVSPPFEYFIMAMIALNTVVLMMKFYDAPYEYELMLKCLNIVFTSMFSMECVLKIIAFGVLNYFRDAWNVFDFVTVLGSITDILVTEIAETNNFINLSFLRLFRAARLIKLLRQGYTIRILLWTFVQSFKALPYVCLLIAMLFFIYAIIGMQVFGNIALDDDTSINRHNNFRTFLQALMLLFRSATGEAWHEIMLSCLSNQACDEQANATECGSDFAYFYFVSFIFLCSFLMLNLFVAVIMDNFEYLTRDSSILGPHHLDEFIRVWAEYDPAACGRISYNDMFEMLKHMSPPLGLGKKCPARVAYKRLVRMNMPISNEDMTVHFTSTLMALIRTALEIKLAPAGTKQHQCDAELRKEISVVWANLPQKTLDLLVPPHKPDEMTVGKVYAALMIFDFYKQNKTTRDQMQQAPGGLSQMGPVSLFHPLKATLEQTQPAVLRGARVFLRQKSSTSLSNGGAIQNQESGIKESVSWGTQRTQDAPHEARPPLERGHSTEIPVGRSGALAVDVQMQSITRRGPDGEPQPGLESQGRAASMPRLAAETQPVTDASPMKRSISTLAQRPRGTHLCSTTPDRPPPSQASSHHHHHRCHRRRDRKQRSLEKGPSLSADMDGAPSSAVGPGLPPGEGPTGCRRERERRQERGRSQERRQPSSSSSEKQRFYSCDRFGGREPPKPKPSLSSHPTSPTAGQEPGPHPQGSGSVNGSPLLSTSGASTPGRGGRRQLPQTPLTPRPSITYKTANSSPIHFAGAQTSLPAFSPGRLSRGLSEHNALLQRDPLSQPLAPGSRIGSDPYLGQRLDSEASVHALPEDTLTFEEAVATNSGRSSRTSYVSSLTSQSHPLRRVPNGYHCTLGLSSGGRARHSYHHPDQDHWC

As for `CC(C)(C1CCN(C(=O)c2ccc(C(F)(F)F)cc2S(C)(=O)=O)CC1)S(=O)(=O)c1cccc(C(F)(F)F)c1`, the IC50 was found to be 0.15 µM. Turning to `CC(C)(C1CCN(C(=O)c2cccc(F)c2)CC1)S(=O)(=O)c1cccc(C(F)(F)F)c1`, the IC50 amounted to 0.83 µM. With `CC(C)(C)c1ccc(C(=O)N2CCC(C(C)(C)S(=O)(=O)c3cccc(C(F)(F)F)c3)CC2)cc1`, the IC50 was determined as 0.49 µM.

In the case of `CC(C)(C1CCN(C(=O)c2nc3ccc(F)cc3[nH]2)CC1)S(=O)(=O)c1cccc(C(F)(F)F)c1`, the concentration for half-maximal inhibition (IC50) was 0.79 µM. Regarding `CC(C)(C1CCN(C(=O)c2cccc3nccnc23)CC1)S(=O)(=O)c1cccc(C(F)(F)F)c1`, the half-inhibitory concentration (IC50) was 1.4 µM. With `CC(C)(C1CCN(C(=O)[C@@H](N)Cc2ccccc2)CC1)S(=O)(=O)c1cccc(C(F)(F)F)c1`, the IC50 stood at 0.49 µM. Under `CC(C)(C1CCN(C(=O)C2(N)CCC2)CC1)S(=O)(=O)c1cccc(C(F)(F)F)c1` stands 1.17 µM; under `CC(C)(C1CCN(C(=O)C[C@@H](NS(C)(=O)=O)c2ccccc2)CC1)S(=O)(=O)c1cccc(C(F)(F)F)c1`, 0.36 µM.

Regarding `CC(C)(C1CCN(C(=O)[C@H](O)Cc2ccccc2)CC1)S(=O)(=O)c1cccc(C(F)(F)F)c1`, the IC50 was 0.51 µM. Consider `CC(C)(C1CCN(C(=O)c2c[nH]c(-c3ccccc3)n2)CC1)S(=O)(=O)c1cccc(C(F)(F)F)c1`, for which the IC50 amounted to 1.39 µM.
